≈ marks a conversion by molar mass, not a printed value. Where two headings read alike, the source gives them in different places.
Assays:
PAM4846 producing OXA-9 = assay: MIC, engineered isogenic strain; format: cell-based, P. aeruginosa; conditions: OXA-9, class D; BLIs at fixed 4 µg/mL
PAM4875 producing OXA-23 = assay: MIC, engineered isogenic strain; format: cell-based, P. aeruginosa; conditions: OXA-23, class D; BLIs at fixed 4 µg/mL
PAM4198 producing IMP-15 = assay: MIC, engineered isogenic strain; format: cell-based, P. aeruginosa; conditions: IMP-15, class B; BLIs at fixed 4 µg/mL
PAM4887 producing IMP-1 = assay: MIC, engineered isogenic strain; format: cell-based, P. aeruginosa; conditions: IMP-1, class B; BLIs at fixed 4 µg/mL
PAM4217 producing OXA-48 = assay: MIC, engineered isogenic strain; format: cell-based, P. aeruginosa; conditions: OXA-48, class D; BLIs at fixed 4 µg/mL
PAM4879 producing CcrA = assay: MIC, engineered isogenic strain; format: cell-based, P. aeruginosa; conditions: class B, BLIs at fixed 4 µg/mL
[1] = system: Escherichia coli NCTC 13353 (ECM7514), CTX-M-15; set-up: method as in earlier work; conditions: quality control range; ref CLSI; cited from earlier work
PAM4689 producing KPC-3 = assay: MIC, engineered isogenic strain; format: cell-based, P. aeruginosa; conditions: KPC-3, class A; BLIs at fixed 4 µg/mL
[2] = system: PAM4823 producing CTX-M-27; assay: MIC, engineered isogenic strain; format: cell-based, P. aeruginosa; conditions: CTX-M-27, class A; BLIs at fixed 4 µg/mL
PAM4842 producing PER-2 = assay: MIC, engineered isogenic strain; format: cell-based, P. aeruginosa; conditions: PER-2, class A; BLIs at fixed 4 µg/mL
PAM4800 producing GES-19 = assay: MIC, engineered isogenic strain; format: cell-based, P. aeruginosa; conditions: GES-19, class A; BLIs at fixed 4 µg/mL
[3] = system: Klebsiella pneumoniae ATCC 700603 (KPM2881), SHV-18; set-up: method as in earlier work; conditions: quality control range; ref CLSI; cited from earlier work
PAM4869 producing PDC-1 = assay: MIC, engineered isogenic strain; format: cell-based, P. aeruginosa; conditions: PDC-1, class C; BLIs at fixed 4 µg/mL
PAM4876 producing OXA-72 = assay: MIC, engineered isogenic strain; format: cell-based, P. aeruginosa; conditions: OXA-72, class D; BLIs at fixed 4 µg/mL
[4] = system: K. pneumoniae ATCC BAA-1705 (KPM1123), KPC-2; set-up: method as in earlier work; conditions: quality control range; ref CLSI; cited from earlier work
[5] = system: K. pneumoniae ATCC BAA-2814 (KP1074), KPC-3; set-up: method as in earlier work; conditions: quality control range; ref CLSI; cited from earlier work
SHV-12 = SHV-12 (Klebsiella pneumoniae, UniProt P0AD64, E235K/G234S/L31Q); assay: Ki app of β-lactamase inhibition, purified enzyme; format: biochemical; conditions: 10-minute preincubation; nitrocefin substrate; read-out: Ki app
SHV-12, sequence (P0AD64 22-286 L31Q/G234S/E235K): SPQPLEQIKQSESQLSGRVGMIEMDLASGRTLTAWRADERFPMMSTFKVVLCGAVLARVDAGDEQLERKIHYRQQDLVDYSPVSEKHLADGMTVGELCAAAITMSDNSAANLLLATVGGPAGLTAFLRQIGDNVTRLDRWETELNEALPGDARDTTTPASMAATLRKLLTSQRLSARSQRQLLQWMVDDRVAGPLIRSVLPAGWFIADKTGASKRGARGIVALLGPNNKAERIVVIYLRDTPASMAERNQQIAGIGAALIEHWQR
Description: (§1) The majority of purified β-lactamase enzymes used in the study were either expressed and purified internally ([35]) or obtained from Emerald Biostructures (Bainbridge Island, WA, USA). L1 enzyme was purified as described in reference ([36]).
(§2) Enzymes were mixed with BLIs at concentrations varying from 160 to 0.0027 µM in 50-mM Na-phosphate pH7.0, 0.1-mg/mL bovide serum albumin (BSA) (buffer A; 20-µM ZnCl2 was also added for all metalloenzymes) and incubated for 10 minutes at 37°C. Nitrocefin (50 µM) (10 µM for SHV-12) or 100 µM of imipenem (prewarmed at 37°C for 10 minutes) was added, and substrate cleavage profiles were recorded at 37°C at 490 nm every 10 seconds for 10 minutes or at 294 nm every 30 seconds for 1 hour for nitrocefin and imipenem, respectively. […] Ki app values (Ki for metalloenzymes) were calculated by the method of Waley ([37]).

IMP-1 = IMP-1 (Serratia marcescens, UniProt P52699); assay: Ki of metallo-β-lactamase inhibition, purified enzyme; format: biochemical; conditions: 10-minute preincubation; imipenem substrate; read-out: Ki
IMP-1, sequence (P52699 19-246 limits assumed): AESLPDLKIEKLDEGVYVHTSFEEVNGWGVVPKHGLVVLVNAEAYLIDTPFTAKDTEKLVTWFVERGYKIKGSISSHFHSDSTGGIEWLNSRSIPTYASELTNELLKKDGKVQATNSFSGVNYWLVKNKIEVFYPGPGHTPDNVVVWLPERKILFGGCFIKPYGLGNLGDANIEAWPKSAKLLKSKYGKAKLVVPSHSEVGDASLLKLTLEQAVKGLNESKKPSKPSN
Description: as §1, §2

IMP-26 = IMP-26 (Pseudomonas aeruginosa, UniProt D0V558); assay: as above; format: biochemical; conditions: 10-minute preincubation; nitrocefin substrate
IMP-26, sequence (D0V558 entry or part of it): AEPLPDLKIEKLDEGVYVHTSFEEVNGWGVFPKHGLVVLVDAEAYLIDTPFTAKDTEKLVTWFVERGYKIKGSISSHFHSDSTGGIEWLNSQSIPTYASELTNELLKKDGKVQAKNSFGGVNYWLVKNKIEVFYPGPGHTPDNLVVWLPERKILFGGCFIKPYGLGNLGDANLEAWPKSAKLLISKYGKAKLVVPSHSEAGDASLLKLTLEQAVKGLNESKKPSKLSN
Description: as §1, §2

[6] = set-up: method as in PMID 31871094; conditions: cited from earlier work
[7] = biological target: T1, VIM-1 in whole cells of KP1015 (OmpK36 GD repeat) (Pseudomonas aeruginosa, UniProt A0A0F7KYQ8); assay: cell-based; set-up: species or system K. pneumoniae
T1 construct: endogenous in cells; host or cells: K. pneumoniae KP1015

KPC-2 = KPC-2 (Klebsiella pneumoniae, UniProt Q9F663); assay: Ki app of β-lactamase inhibition, purified enzyme; format: biochemical; conditions: 10-minute preincubation; nitrocefin substrate
KPC-2, sequence (Q9F663 25-293 limits assumed): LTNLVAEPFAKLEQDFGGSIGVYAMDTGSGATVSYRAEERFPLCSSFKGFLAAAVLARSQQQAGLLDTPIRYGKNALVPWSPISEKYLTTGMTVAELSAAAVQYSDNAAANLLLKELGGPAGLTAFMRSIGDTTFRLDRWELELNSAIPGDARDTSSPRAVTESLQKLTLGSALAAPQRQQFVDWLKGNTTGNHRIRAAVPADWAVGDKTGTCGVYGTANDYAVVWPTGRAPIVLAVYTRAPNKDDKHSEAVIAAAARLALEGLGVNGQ
Description: as §1, §2

[8] = system: NDM-9 (lysate of NDM-9-producing strain); conditions: read-out: IC50 of inhibition of imipenem hydrolysis in cell lysates; cited from earlier work
[9] = cited from earlier work

Work on `CO/N=C(\C(=O)N[C@@H]1C(=O)N2C(C(=O)[O-])=C(C[N+]3(C)CCCC3)CS[C@H]12)c1csc(N)n1` [FEP, cefepime] yielded an MIC (PAM4846 producing OXA-9) of 2 µg/mL (≈ 4.16 µM), an MIC (PAM4875 producing OXA-23) of 2 µg/mL (≈ 4.16 µM) and an MIC (PAM4198 producing IMP-15) of 16 µg/mL (≈ 33.3 µM). For the same compound, the MIC (PAM4887 producing IMP-1) was 64 µg/mL (≈ 133 µM), the MIC (PAM4217 producing OXA-48) was 0.5 µg/mL (≈ 1.04 µM) and the MIC (PAM4879 producing CcrA) was 16 µg/mL (≈ 33.3 µM). The “CLSI approved MIC range” value [1] was over 64 µg/mL, the MIC (PAM4689 producing KPC-3) was over 64 µg/mL and the MIC [2] was over 64 µg/mL. The MIC (PAM4842 producing PER-2) was 64 µg/mL (≈ 133 µM), the MIC (PAM4800 producing GES-19) was 64 µg/mL (≈ 133 µM) and the “CLSI approved MIC range” value [3] was 0.5 to 2 µg/mL. It also gave an MIC (PAM4869 producing PDC-1) of 4 µg/mL (≈ 8.32 µM) and an MIC (PAM4876 producing OXA-72) of 2 µg/mL (≈ 4.16 µM).
Work on `C[C@@H](O)[C@H]1C(=O)N2C(C(=O)O)=C(S[C@@H]3CN[C@H](C(=O)N(C)C)C3)[C@H](C)[C@H]12` [MEM, meropenem] yielded an MIC (PAM4846 producing OXA-9) of 0.25 µg/mL (≈ 0.652 µM), an MIC (PAM4875 producing OXA-23) of 2 µg/mL (≈ 5.22 µM) and an MIC (PAM4198 producing IMP-15) of 1 µg/mL (≈ 2.61 µM). The MIC (PAM4887 producing IMP-1) was 4 µg/mL (≈ 10.4 µM), the MIC (PAM4217 producing OXA-48) was 4 µg/mL (≈ 10.4 µM) and the MIC (PAM4879 producing CcrA) was 2 µg/mL (≈ 5.22 µM). It also gave an MIC (PAM4689 producing KPC-3) of 64 µg/mL (≈ 167 µM), an MIC [2] of 0.5 µg/mL (≈ 1.3 µM) and an MIC (PAM4842 producing PER-2) of 0.125 µg/mL (≈ 0.326 µM). For the same compound, the MIC (PAM4800 producing GES-19) was 1 µg/mL (≈ 2.61 µM), the “CLSI approved MIC range” value [4] was 8.0 to 64 µg/mL and the MIC (PAM4869 producing PDC-1) was 0.5 µg/mL (≈ 1.3 µM). For the same compound, the “CLSI approved MIC range” value [5] was 32 to 256 µg/mL and the MIC (PAM4876 producing OXA-72) was 2 µg/mL (≈ 5.22 µM).
Work on `NCCN[C@H]1CC[C@H](CC(=O)N[C@H]2Cc3cccc(C(=O)O)c3OB2O)CC1` [Taniborbactam, taniborbactam] yielded a Ki (SHV-12) of 0.00015 ± 3e-05 µM, a Ki (IMP-1) of over 20 µM and a Ki (IMP-26) of over 20 µM. For the same compound, the “concentration at which direct antibacterial activity is lacking” value [6] was over 512 µg/mL and the IC50 ([7]; read-out: IC50 of β-lactamase inhibition in whole cells) was 39.1 ± 8.2 µM.
In the case of `O=C(O)c1c(F)ccc2c1OB(O)[C@@H]1C[C@H]21` [Xeruborbactam, xeruborbactam], the Ki (KPC-2) is listed as 0.0014 ± 0.0002 µM, the IC50 [8] is listed as 1.2 ± 0.1 µM and the steady-state plasma concentration ([9]; phase I subjects, 500-mg loading dose then 250 mg every 8 hours by 3-hour infusion) is listed as ~ 7 µg/mL. For the same compound, the safety and tolerability ([9]; phase I, intravenous or oral (prodrug), doses of 1,000 mg/day or less) was “safe and well tolerated” and the IC50 [7] was 70 ± 13.4 µM.

From PMC10648875 (Antimicrobial Agents and Chemotherapy, 2023)
